In patent publication US8114897B2, “Pesticidal composition and method for controlling a pest” (priority 2007, dated 2012):

Experiments:
[1] = tested on: cockroaches Blattella germanica; assay: Test Example: spray test on hidden cockroaches, mortality rate; type: in vivo; conditions: 4.2 mL test formulation solution (ingredient concentrations % (W/V) per Table 1, in diethylene glycol monomethylether) sprayed in 70 cm cubic glass box; 10 cockroaches; transferred after 10 minutes; counted after 3 days; average of duplicate
From the text: Suitable amounts of 4-methoxymethyl-2,3,5,6-tetrafluorobenzyl(1R)-trans-3-(2-cyano-1-propenyl)-2,2-dimethylcyclopropanecarboxylate (isomer ratio, based on double bond, Z/E: approximately 2/1) (hereinafter, referred to as compound A) and/or clothianidin (manufactured by Sumika Takeda Agrochemicals Co.) are mixed with diethylene glycol monomethylether, to give a test formulation solution containing the compound A and/or clothianidin at particular concentrations (see Table 1).
(§1) A triangular prism wooden container (regular triangle having a base of 3.5 cm and a height of 15 cm) containing 10 cockroaches Blattella germanica (5 males and 5 females) hidden therein was placed in the bottom center of a cubic glass box having a base of 70 cm square. 4.2 Milliliters of the test formulation solution was sprayed on the glass box with a spray gun. In 10 minutes after the spraying, the cockroaches were transferred into a plastic container containing food and water and left there for 3 days. The number of live cockroaches was then counted, to give a mortality rate.

[2] = tested on: cockroaches Blattella germanica; assay: Referential Test Example: spray test on hidden cockroaches, mortality rate; type: in vivo; conditions: 4.2 mL test formulation solution (ingredient concentrations % (w/v) per Table 2, in diethylene glycol monomethylether) sprayed in 70 cm cubic glass box; 10 cockroaches; transferred after 10 minutes; counted after 3 days; average of duplicate
From the text: Suitable amounts of the compound A and either (E)-N^1-[(6-chloro-3-pyridyl)methyl]-N^2-cyano-N^1-methylacetamidine (general name: acetamiprid, hereinafter, referred to as N-cyanoacetamidine compound) or 1-(6-chloro-3-pyridylmethyl)-N-nitroimidazolidin-2-ylidene amine (general name: imidacloprid, hereinafter referred to as nitroimidazoline compound) are mixed with diethylene glycol monomethylether, to give test formulation solutions containing the compound A and either the N-cyano acetamidine or nitroimidazoline compound at particular concentrations (see Table 2).
as §1, with “cm.” for “cm square.”

| Compound | Mortality rate (%) [1] [%] | Mortality rate (%) [2] [%] |
| --- | --- | --- |
| CN/C(=N\[N+](=O)[O-])NCc1cnc(Cl)s1 [compound 8, 1-(2-chloro-1,3-thiazolyl)methyl-3-methyl-2-nitroguanidine] | 35 | – |
| O=[N+]([O-])NC1=NCCN1Cc1ccc(Cl)nc1 [compound 13, 1-(6-chloro-3-pyridylmethyl)-N-nitroimidazolidin-2-ylidene amine] | – | 15 |
| COCc1c(F)c(F)c(COC(=O)[C@@H]2[C@@H](C=C(C)C#N)C2(C)C)c(F)c1F [compound 7, 4-methoxymethyl-2,3,5,6-tetrafluorobenzyl(1R)-trans-3-(2-cyano-1-propenyl)-2,2-dimethylcyclopropanecarboxylate] | 5 | 5 |
| C/C(=N\C#N)N(C)Cc1ccc(Cl)nc1 [compound 12, (E)-N^1-[(6-chloro-3-pyridyl)methyl]-N^2-cyano-N^1-methylacetamidine] | – | 5 |
